Patent publication US20210255184A1, “Biosensor Device and Methods” (The New Zealand Institute for Plant and Food Research …, priority 2018, published 2021)
Entries after “also recorded” stand apart in the source; their conditions may differ.

Legend:
Or10a = target: T1, Or10a (Drosophila melanogaster, UniProt Q9VYZ1); experiment: QCM-D sensor, Or10a liposomes; format: biochemical; settings: 1.6 to 1000 μM in PBS with 1% DMSO
T1 construct: his-tag; made in house; host or cells: baculovirus-infected Sf9 cells
T1 sequence (Q9VYZ1 1-406): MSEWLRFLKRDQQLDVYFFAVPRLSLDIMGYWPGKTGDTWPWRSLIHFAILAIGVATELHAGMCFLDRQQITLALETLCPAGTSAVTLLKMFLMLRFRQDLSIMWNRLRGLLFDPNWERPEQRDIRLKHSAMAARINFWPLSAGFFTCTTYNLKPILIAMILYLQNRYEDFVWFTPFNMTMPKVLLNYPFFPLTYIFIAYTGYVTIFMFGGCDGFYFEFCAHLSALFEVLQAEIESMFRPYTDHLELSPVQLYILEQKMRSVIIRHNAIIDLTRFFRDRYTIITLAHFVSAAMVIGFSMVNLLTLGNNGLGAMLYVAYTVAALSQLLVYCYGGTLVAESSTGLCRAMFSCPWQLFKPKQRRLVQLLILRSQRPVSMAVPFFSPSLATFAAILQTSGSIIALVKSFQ
Method: Gold (100 nm) sensor crystals were sonicated in ethanol and milli-Q water for 15 minutes each respectively. A 5:1:1 volume ratio of milli-Q water, ammonia (25%), and hydrogen peroxide (30%) was heated to 75° C. for 5 minutes and the sonicated crystals were placed in the heated solution for 5 minutes. Then the crystals were removed from the solution and rinsed with milli-Q water before drying with nitrogen gas. The clean gold crystals were thiol-functionalized by exposing them to 2 mM ethanolic solution of MHA overnight followed by washing with ethanol solution in order to remove excess or loosely bound molecules. NHS/EDC was prepared using 2:1 mol:mol ratio of EDC:NHS (100 mM EDC, 50 mM NHS) in 2 ml PBS (pH=6.5) solution. Each OrX/liposome stock solution was diluted 100 fold for QCM-D measurements in PBS buffer solution (pH=7.4). The SAM functionalized crystals were then placed into the Q-sense analyser instrument (Biolin Scientific) chamber and flowed with the NHS/EDC, Or10a/liposomes or Or10a/Orco liposomes, and various concentrations of methyl hexanoate (1.6 μM, 8 μM, 20 μM, 40 μM, 100 μM, 200 μM, 500 μM and 1000 μM) in PBS buffer solution containing 1% DMSO to measure the changes in frequency (Δf) and dissipation (ΔD) values.

Orco = target: T2, Orco (Drosophila melanogaster, UniProt Q9VNB5); experiment: GFET sensor, Orco liposomes (control); format: biochemical; settings: Orco only liposomes
T2 construct: his-tag; made in house; host or cells: baculovirus-infected Sf9 cells
T2 sequence (Q9VNB5 1-486): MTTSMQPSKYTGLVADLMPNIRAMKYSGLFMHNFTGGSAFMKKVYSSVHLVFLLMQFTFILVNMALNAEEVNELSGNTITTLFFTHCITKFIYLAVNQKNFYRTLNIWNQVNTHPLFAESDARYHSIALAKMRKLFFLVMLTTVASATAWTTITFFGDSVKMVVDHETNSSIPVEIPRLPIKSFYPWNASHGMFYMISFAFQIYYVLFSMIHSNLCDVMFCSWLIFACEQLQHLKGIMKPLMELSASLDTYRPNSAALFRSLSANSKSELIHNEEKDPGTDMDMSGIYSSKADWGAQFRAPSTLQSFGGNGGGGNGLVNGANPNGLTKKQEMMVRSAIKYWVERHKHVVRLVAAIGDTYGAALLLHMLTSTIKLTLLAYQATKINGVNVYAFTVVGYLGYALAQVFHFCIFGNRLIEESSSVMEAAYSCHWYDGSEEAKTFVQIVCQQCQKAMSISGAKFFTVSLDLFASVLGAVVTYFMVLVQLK
Method: The OR liposomes were functionalised onto the graphene surface via a non-covalent route using PBASE as the molecular linker as shown in FIG. 13. The OR liposomes were diluted at 1:10 ratio with 1×PBS (pH7.4). The cleaned GFETs were immersed in 1 mM PBASE solution in methanol for 1 hour. The devices were washed three times in methanol and subsequently washed three times in 1×PBS to remove the excess PBASE and residual methanol in the channel respectively. The OR liposomes were diluted 1:10 with 1×PBS (pH 7.4) and 100 μL of the OR dilution was placed in the graphene channel and incubated at room temperature for one hour in a closed petri dish. After OR liposome functionalization, the devices were washed in 1×PBS for 10 s before measurements.
The OR liposome immobilised GFET device with a PDMS well mounted on it was placed onto the probe station and the source and drain connections were made by micromanipulators. 100 μl of PBS containing 1% dimethyl sulfoxide (DMSO) was added to the well and the Ag/AgCl standard electrode was placed into the buffer. The stock solution of ligands at 100 mM concentrations were prepared by dissolving them in DMSO as they are not stable in aqueous buffer. The stock solution was stored at 4° C. The ligand solution for sensing was prepared by diluting the stock solution in 1×PBS buffer containing 1% DMSO to set concentrations from 10 fM to 100 pM. […]

## COC(=O)c1ccccc1O [methyl salicylate]
Or10a
  change in oscillation frequency on ligand exposure: increase in the frequency
Orco
  sensor response to target ligand: lack of response

## CCCCCC(=O)OC [methyl hexanoate]
Or10a
  change in oscillation frequency on ligand exposure: negligible response; also recorded: not observed
Orco
  sensor response to target ligand: lack of response
